Data as given in patent US9561201B2, “Therapeutic compounds” (Fibrotech Therapeutics Pty Ltd, priority 2006, dated 2017).

Assays:
[1] = system: mesangial cell line (1097); assay: TGF-β induced 3H-proline incorporation in cultured rat mesangial cells (Example 2); assay type: cell-based, Sprague-Dawley rats; conditions: renal mesangial cells, from 30 to 100 μM
Experimental: The anti-fibrotic effects of 3-methoxy-4-propargyloxybenzaldehyde (FT011) in a renal cell line were tested by measuring proline incorporation after transforming growth factor-β stimulation.
A well-characterized cloned mesangial cell line (1097) isolated from Sprague-Dawley rats was used between passages 30 and 40. Cells were cultured in Dulbecco's Modified Eagle's (DME) medium (Invitrogen, Grand Island, N.Y.) with heat-inactivated fetal bovine serum (FBS), 100 u/mL penicillin and 100 ug/mL streptomycin in a humidified 5% CO2 atmosphere at 37° C.
To compare the effects of tranilast and FT011 on collagen production in vitro, incorporation of tritiated proline was used. Mesangial cells were plated at low density into 24-well culture plates in DME/5% FBS and allowed to adhere overnight. The subconfluent cells were starved overnight in DME/0.5% FBS and […] L-ascorbic acid (Sigma-Aldrich). Tranilast or FT011 was then added to the wells, followed 4 hours later by L-[2,3,4,5-^3H]-proline, 0.5 μCi/well (Amersham) and TGF-β1, 5 ng/ml (R & D systems). Mesangial cells were harvested 48 hours post-stimulation, washed three times with ice cold PBS, and incubated with 10% trichloroacetic acid (TCA) for 30 minutes on ice, followed by a wash in ice cold 10% TCA. Cells were then solubilised in […] 1M NaOH. […]

[2] = Pilot study (toxicity assessment), 2 weeks oral gavage; assay type: in vivo, Sprague-Dawley (SD) rats; conditions: 2 weeks
Experimental: A total of twenty male Sprague-Dawley (SD) rats weighing 200-250 g were randomised to either FT011 (Fibrotech Therapeutics Pty Ltd, Melbourne, Australia) or Tranilast (Pharm Chemical, Shanghai Lansheng Corporation, China) at the dose of 50 mg, 100 mg, 200 mg and 400 mg/kg/day by gavage twice daily (n=2-3 per group). A control group of animals were gavaged with vehicle (1% carboxy methyl cellulose). The study was conducted for 2 weeks. Animals were bled daily at one, four, and eight hours after oral gavage to measure the plasma concentration. Serum was also collected to assess renal and liver function at the end of the study (plasma creatine and urate, ALT and bilirubin). Rats were individually housed in metabolic cages at the end of the study, habituated for 2 to 3 hours, and urine collected over 24 hours. Animals continued to have free access to tap water and standard laboratory chow during this period. The biochemistry tests performed at the department of pathology, St Vincent's hospital. Major organs including lung, heart, liver, spleen and kidney were harvested and immersed fix with 10% neutral buffered formalin and then embedded paraffin for subsequent light microscope examination.

cardiac fibroblasts = conditions: experimental model of diabetic cardiac disease [15]; cited from earlier work
[3] = patients with Gilbert's syndrome UGT1A1 variant [19]; cited from earlier work

COc1ccc(/C=C/C(=O)Nc2ccccc2C(=O)O)cc1OC [Analogue 1, (E)-2-[[3-(3,4-Dimethoxyphenyl)-1-oxo-2-propenyl]amino]benzoic acid, reference compound]
proline incorporation after TGF-β stimulation [1]: significantly reduce
ALT ([2]; 50 mg/kg/day gavage): 40.5 ± 4.5
Body weight ([2]; 50 mg/kg/day gavage): 315 ± 19 Gram
Plasma Creatinine ([2]; 50 mg/kg/day gavage): 43 ± 0.5 µmol/L
Plasma Urate ([2]; 50 mg/kg/day gavage): <0.09 mmol/L
ALT ([2]; 100 mg/kg/day gavage): 41 ± 1
Body weight ([2]; 100 mg/kg/day gavage): 298 ± 21 Gram
Plasma Creatinine ([2]; 100 mg/kg/day gavage): 43 ± 3.5 µmol/L
Plasma Urate ([2]; 100 mg/kg/day gavage): <0.09 mmol/L
ALT ([2]; 200 mg/kg/day gavage): 41 ± 4.6
Body weight ([2]; 200 mg/kg/day gavage): 293 ± 10 Gram
Plasma Creatinine ([2]; 200 mg/kg/day gavage): 45 ± 1 µmol/L
Plasma Urate ([2]; 200 mg/kg/day gavage): <0.09 mmol/L
ALT ([2]; 400 mg/kg/day gavage): 40 ± 5
Body weight ([2]; 400 mg/kg/day gavage): 314 ± 13 Gram
Plasma Creatinine ([2]; 400 mg/kg/day gavage): 49 ± 7.8 µmol/L
Plasma Urate ([2]; 400 mg/kg/day gavage): <0.09 mmol/L
TGF-β-induced collagen synthesis in cardiac fibroblasts (cardiac fibroblasts): attenuate
drug-induced adverse effect [3]: hyperbilirubinemia
